Measured values from US20130156845A1, “LIPID FORMULATED SINGLE STRANDED RNA” (ALNYLAM PHARMACEUTICALS, INC., priority 2010, published 2013).
Read-outs that look alike come from different tables or passages of the source. Strand notation (5' to 3'): a small letter for the sugar, then the base; units joined by * are phosphorothioate-linked, units joined directly phosphodiester-linked; [ ] holds rarer units or linkages, { } end groups; capitals alone tell only the bases. {PS2} = PS2 group (structure drawn in the publication); {PS} = PS group (structure drawn in the publication); e = 2'-O-(2-methoxyethyl) (MOE); m = 2'-O-methyl; {P} = phosphate; f = 2'-fluoro

Experiments:
[1] = ssRNA stability in hepatocyte cell homogenate assay (Example 65); assay type: in vitro ADME; conditions: mouse hepatocyte homogenate, LC-MS
Description: Hepatocytes were harvested from bal/c mice in ice-cold hepatocyte wash media (William E Media) with fetal bovine serum, sedimented by centrifugation at 1000 g for 8 minutes and then washed with hepatocyte wash media. Hepatocytes were homogenized with RIPA buffer (50 mM Tris pH 7.5, 10 mM MgCl2, 150 mM NaCl, 0.5% NP-40 alternative, one tablet of Roche protease inhibitor #11836170001), and centrifuged at 14000 g for 15 minutes at 4° C. and the supernatant was removed and stored in ice. Protein concentration (BSA mg/mL) was determined with Bradford assay and adjusted to a final protein concentration of 2 mg/mL by addition of Ripa buffer volume or cell homogenate volume.
[…] were homogenized in a homogenation buffer (20 mM Tris, pH 8, 20 mM EDTA and 0.1 M NaCl in 0.5% NP-40) at time points 0, 5, 10, 20, 30, 40 and 60 minutes (Exception: 06/408877 at time points 0, 15, 30, 60, 120 and 240 mins, 06/409044, at time points 0, 0.5, 1, 2, 4, 8, and 18 hours). An internal standard (18/355868, a 27-mer, 2′-O-methoxyethyl-modified phosphorothioate oligonucleotide, or 19/116847, a 5-10-5 gappmer, 2′-O-methoxyethyl-modified phosphorothioate oligonucleotide) with concentration at 20 ug/g was added prior to extraction. Tissue samples were extracted with 70 μL of NH4OH and 240 μL of phenol/chloroform/isoamyl alcohol (25:24:1). The supernatant was removed after centrifugation at 14000 rpm for 2 min. The remaining extractant was vortexed with an additional […] of water and the aqueous layer was removed and combined with the supernatant after centrifugation at 14000 rpm for 2 minutes.
Triethylammonium acetate solution at 1M ([…]) was added to the supernatant. The aqueous layer of the mixture was loaded onto the pre-conditioned Biotage™ Phenyl Solid Phase Extraction Plate (SPE plate) after centrifugation at 9000 rpm for 20 minutes. The SPE plate was washed several times with water. The sample was then eluted with 1.5 mL of 1% TEA in 90% MeOH and filtered through the Protein Precipitation Plate (Phenomenex™). The elutent was evaporated to dryness and diluted to 200 μL with 50% quenching buffer (8 M urea, 50 mM EDTA) and water before sample injection.
An Agilent 1100 Series LC/MSD system was connected in-line to a mass spectrometry. Mass spectrometer was operated in the electrospray negative ionization mode. The nebulizer nitrogen gas was set at […] and the drying nitrogen gas was set at 12 L/min. The drying temperature was 325° C. Samples (25 μL/well) were introduced via an auto sampler and reversed-phase chromatography was carried out with an XBridge OST C18 2.5 μm 2.1 mm×50 mm HPLC column using a flow rate of 300 μL/min at 55° C. The ion pair buffers consisted of A: 5 mM tributylammonium acetate (TBAA) in 20% acetonitrile and B: […] TBAA in 90% acetonitrile and the loading buffer was 25 mM TBAA in 25% Acetonitrile. Separation was performed on a 30% to 70% B in 9 min and then 80% B in 11 min gradient.
Quantitative analysis of oligonucleotide and internal standard by extracted ion chromatograms of the most abundant ions was performed using MSD ChemStation software. The results are expressed as half-time (T1/2) in the table below.

PTEN [2] = assay: PTEN mRNA reduction in HeLa cells, dose response (Example 64); assay type: cell-based, human; conditions: real-time PCR, 1.56-50 nM
Description: A dose response experiment was performed targeting PTEN in human HeLa cells to determine the effects of placement of sugar and internucleoside linkages within ssRNAs. More specifically, the modified ssRNAs were tested for their ability to reduce PTEN mRNA in cultured cells. The modified ssRNAs are shown below, and contain 2′-OMe and 2′-fluoro modified nucleosides, two 2′-O-MOE modified nucleosides at the 3′-terminus, and seven phosphorothioate linkages at the 3′-terminus of the ssRNAs.
HeLa cells were treated with ssRNAs shown below at concentrations of 1.56 nM, 3.13 nM, 6.25 nM, 12.5 nM, […] and 50 nM using methods described herein. Levels of mRNA were determined using real-time PCR methods as described herein. The IC50 for each ssRNA was determined.

PTEN [3] = assay: In vivo evaluation of ssRNA formulated in lipid particle LNP06, liver PTEN mRNA (Example 77); design: species or system mouse; conditions: ssRNA formulated in LNP06, 4.5 mg/kg tail vein, C57BL/6 mice, liver PTEN mRNA normalized to GAPDH, 2 days post injection
Description: In accordance with the present disclosure, oligomeric compounds were synthesized and tested for their ability to reduce PTEN. C57BL/6 mice (Charles River Labs, MA) received either saline or LNP formulated single stranded RNA via tail vein injection at a volume of 0.01 mL/g and the single stranded RNA dose is 4.5 mg/kg. 25 groups of female mice and 9 modified ssRNAs targeting PTEN were formulated in LNP06 and tested. To determine liver mRNA levels of PTEN, 2 days post injection, animals were sacrificed and livers were harvested and snap frozen in liquid nitrogen. Liver lysates were prepared from the frozen tissues and liver mRNA levels of PTEN normalized to GAPDH were quantified using a branched DNA assay (QuantiGene Assay, Panomics, Calif.).

human PTEN = assay: PTEN expression in HeLa cells, ssRNAs vs siRNAs (Example 62); assay type: cell-based
Description: A series of 5′ and 2′ bis-substituted modified oligomeric compounds were prepared as single strand RNAs (ssRNAs). The antisense (AS) strands listed below were designed to target human PTEN, and each was also assayed as part of a duplex with the same sense strand (ISIS 341401, shown below) for their ability to reduce PTEN expression levels. HeLa cells were treated with the single stranded or double stranded oligomeric compounds created with the antisense compounds shown below using methods described herein. The IC50's were calculated using the linear regression equation generated by plotting the normalized mRNA levels to the log of the concentrations used.

PTEN [4] = assay: PTEN mRNA reduction in HeLa cells, dose response (Example 72); assay type: cell-based, human; conditions: percent inhibition of PTEN mRNA, 0.167-50 nM
Description: In accordance with the present disclosure, oligomeric compounds were synthesized and tested for their ability to reduce PTEN expression over a range of doses. Human HeLa cells were treated with the following oligomeric compounds. A dose comparison was evaluated with dose concentrations of 0.167, 0.5, 1.5, 5, 15 and 50 nM using methods described herein. Expression levels of PTEN were determined using real-time PCR and normalized to RIBOGREEN™ using methods described herein. The percent inhibition of PTEN mRNA was determined and the resulting dose-response curves were used to determine the IC50. The IC50s are listed below.

PTEN [5] = assay: Liver PTEN mRNA in Balb/c mice, unformulated oligomeric compounds (Example 70); assay type: in vivo, mouse; conditions: 48 h
Description: Six-week-old male Balb/c mice (Jackson Laboratory, Bar Harbor, Me.) were injected intraperitenially with a single dose of 75 mg/kg of one of the three oligomeric compounds above or with saline control. Each dose group consisted of four animals. The mice were sacrificed 48 hours following administration. Livers were collected and PTEN mRNA levels were assessed using real-time PCR and RIBOGREEN® RNA quantification reagent (Molecular Probes, Inc. Eugene, Oreg.) according to standard protocols. PTEN mRNA levels were determined relative to total RNA (using Ribogreen), and normalized to the saline-treated control. Results are listed below as the average % inhibition of PTEN mRNA expression for each treatment group, normalized to saline-injected control.

| Substance | T1/2 Test 1 [1] | IC50 (PTEN [2]) | % Kd (PTEN [3]) | other results |
| --- | --- | --- | --- | --- |
| P-UfUfGfUfCfUfCmUfGmGfUmCfCmUfUmAfCmUfUmTeTe (antisense UUGUCUCUGGUCCUUACUUTT; 5'-phosphate, modified nucleotides, chemistry not fully specified) [ISIS 409049, modified ssRNA targeting PTEN] | 13 min | 16.2 nM | – | – |
| P-USSUfGmUfCmUfCmUfGmGfUmCfCmUfUmAfCmUfUmAeAe (antisense TUGUCUCUGGUCCUUACUUAA; 5'-phosphate, 2'-F/2'-OMe, MOE modifications, chemistry not fully specified) [ISIS 467088, modified ssRNA targeting PTEN] | – | – | 50% | – |
| P-TmoeUfGmUfCmUfCmUfGmGfUmCfCmUfUmAfCmUfUmAeAe (antisense {P}-eT*fU*mGfU*mCfU*mCfU*mGfG*mUfC*mCfU*mU*fA*mC*fU*mU*eA*eA) [A-53286, modified ssRNA targeting PTEN] | – | – | 67% | – |
| P-TdUfGmUfCmUfCmUfGmGfUmCfCmUfUmAfCmUfUmAeAe (antisense TUGUCUCUGGUCCUUACUUAA; 5'-phosphate, chemical modifications, chemistry not fully specified) [ISIS 435397, modified ssRNA targeting PTEN] | – | – | 44% | EC50 (human PTEN; antisense strand duplexed with sense strand ISIS 341401, PTEN mRNA, read-out: EC50 (nM) siRNA): 0.4 nM; EC50 (human PTEN; single stranded antisense compound, PTEN mRNA, read-out: EC50 (nM) ssRNA): 2 nM; IC50 (PTEN [4]): 2 nM |
| P-UmUfGfUfCfUmCmUfGfGmUmCfCfUfUfAfCmUmUmAeAe (antisense UUGUCUCUGGUCCUUACUUAA; sugars from the 5' end mffffmmffmmfffffmmmee, 5' {P}, backbone not given here) [ISIS 408877, modified ssRNA targeting PTEN] | 30 min | 7 nM | – | T1/2 Test 2 [1]: 24 min |
| P-UfUfGfUfCfUmCmUfGfGmUmCfCfUfUfAfCmUmUmAeAe (antisense UUGUCUCUGGUCCUUACUUAA; sugars from the 5' end fffffmmffmmfffffmmmee, 5' {P}, backbone not given here) [ISIS 408874, modified ssRNA targeting PTEN] | 22 min | 6 nM | – | T1/2 Test 2 [1]: 18 min |
| PS2-TmoeUfGmUfCmUfCmUfGmGfUmCfCmUfUmAfCmUfUmAeAe (antisense {PS2}-eT*fU*mGfU*mCfU*mCfU*mGfG*mUfC*mCfU*mU*fA*mC*fU*mU*eA*eA) [A-59890, modified ssRNA targeting PTEN] | – | – | 31% | – |
| UfUfGfUfCfUfCmUfGmGfUmCfCmUfUmAfCmUfUmAeAe (UUGUCUCUGGUCCUUACUUAA; sugars from the 5' end ffffffmfmfmfmfmfmfmee, backbone not given here) [ISIS 407047, modified ssRNA targeting PTEN] | 6 min | 3.5 nM | – | – |
| P-UmUfGmUfCmUfCmUfGmGfUmCfCmUfUmAfCmUfUmAeAe (antisense UUGUCUCUGGUCCUUACUUAA; sugars from the 5' end mfmfmfmfmfmfmfmfmfmee, 5' {P}, backbone not given here) [ISIS 409044, modified ssRNA targeting PTEN] | 240 min | 10.5 nM | – | T1/2 Test 2 [1]: 258 min |
| PS-TmoeUfGmUfCmUfCmUfGmGfUmCfCmUfUmAfCmUfUmAeAe (antisense {PS}-eT*fU*mGfU*mCfU*mCfU*mGfG*mUfC*mCfU*mU*fA*mC*fU*mU*eA*eA) [A-59889, modified ssRNA targeting PTEN] | – | – | 45% | – |
| ^meCeTeGe^meCeTeAG^meC^meCT^meCTGGATeTeTeGeAe [ISIS 116847, reference compound] | – | – | – | inhibition of PTEN (PTEN [5]; 75 mg/kg, liver): potent inhibitor of PTEN; % inhibition (PTEN [5]; liver PTEN mRNA, single i.p. dose 75 mg/kg, normalized to saline control): 76% |
| P-UfUfGfUfCfUmCmUfGfGmUmCfCfUfUfAfCmUmUmTeTe (antisense UUGUCUCUGGUCCUUACUUTT; 5'-phosphate, modified nucleotides, chemistry not fully specified) [ISIS 409062, modified ssRNA targeting PTEN] | 17 min | 8.6 nM | – | – |
